Results from patent publication US5183826A, “Antiviral agent” (Merck & Co., Inc., priority 1990, dated 1993).

Legend:
HIV protease = target: T1, HIV protease (Human immunodeficiency virus type 1 group M subtype B, UniProt P12497); experiment: HIV protease inhibition: cleavage of radiolabelled synthetic peptide substrate (beta-naphthylalanine-proline bond); format: biochemical; conditions: for Disintegrations/Minute: Blank 236, Total (Control) 4497
T1 construct: ability of a HIV protease to cleave the peptide bond
Description: The HIV protease inhibitor activity may be seen in an assay to test the presence of a compound which affects the ability of a HIV protease to cleave the peptide bond between β-naphthylalanine and proline. A suitable substrate is ^3 H β-casein. However, a synthetic peptide containing the β-naphthylalanine and proline link gives more consistent results and one especially preferred is a peptide which is radioactively labelled at one terminus and arginine substituted at the other terminus thereby allowing the basic end to be bound to a cation exchange resin and the cleaved labelled fragment to be found in the eluate.
In a representative assay, 25 μl of a dilute peptide substrate solution containing 0.5 μl of the substrate in a 100 mM sodium acetate buffer was added to an assay tube containing (a) 45 μl of 111 mM sodium acetate buffer, (b) 25 μl of a diluted protease solution containing 0.4% bovine serum albumin (BSA) and (c) 5 μl of a solution containing from 0.63 to 210 μM of Compound I, or to blank tubes containing 25 μl of 100 mM sodium acetate plus 0.4 percent BSA, 45 μl of 111 mM sodium acetate buffer and 5 μl of dimethyl sulfoxide (DMSO) (99 vols. DMSO plus 1 vol 100 mM tris(hydroxymethyl)aminomethane (TRIS·HCl), pH 7.5). In the tubes, the concentration of the protease solution is 2.0 nM. The assay tubes are then incubated for 37° C. for 60 minutes and the reaction then quenched with 100 μl of 5% H3 PO4.
150 microliters of the reaction mixture was placed on a cation exchange column (Dowex AG-50W-X8, Dow Chemical Company) and the column then washed with 1.85 milliliters of water and the effluents collected in scintillation vials. 7-10 milliliters of scintillation cocktails were added to each vial, the vials vortexed vigorously, then placed in the scintillation counter and counted using the tritium channel. The results were as follows:
The percent inhibition was obtained by the following calculation: [formula]

[1] = solubility in organic solvents; conditions: methanol, ethanol, isopropanol, ethyl acetate, chloroform, dimethylformamide, benzene, diethyl ether, dimethyl sulfoxide
[2] = cytotoxic and other side effects (statement)
[3] = system: platelet activating factor; experiment: assay for platelet activating factor
proteases = experiment: specificity against other proteases (statement); format: biochemical; conditions: no inhibitory effect or some activity only against proteases whose locus of action is avoidable

C=C1C(C)C2C(Cc3ccccc3)NC(=O)C23C(OC(C)=O)/C=C/C(C)CC(C)C/C=C/C3C1O (stereo not shown) [Compound I]
HIV protease inhibition (general statement in words) (HIV protease): very effective HIV protease inhibitor | IC50 (HIV protease): ~6.28 µM | Disintegrations/Minute (HIV protease; Compound I 2.1 μM): 3862 Disintegrations/Minute | inhibition at 2.1 µM (HIV protease; Compound I 2.1 μM, protease 2.0 nM, 37° C., 60 minutes, read-out: Percent Inhibition): 15% | Disintegrations/Minute (HIV protease; Compound I 6.3 μM): 2309 Disintegrations/Minute | inhibition at 6.3 µM (HIV protease; Compound I 6.3 μM, protease 2.0 nM, 37° C., 60 minutes, read-out: Percent Inhibition): 51% | Disintegrations/Minute (HIV protease; Compound I 21 μM): 1139 Disintegrations/Minute | inhibition at 21 µM (stock) (HIV protease; Compound I 21 μM, protease 2.0 nM, 37° C., 60 minutes, read-out: Percent Inhibition): 79% | Disintegrations/Minute (HIV protease; Compound I 63 μM): 550 Disintegrations/Minute | inhibition at 63 µM (HIV protease; Compound I 63 μM, protease 2.0 nM, 37° C., 60 minutes, read-out: Percent Inhibition): 93% | Disintegrations/Minute (HIV protease; Compound I 210 μM): 402 Disintegrations/Minute | inhibition at 210 µM (HIV protease; Compound I 210 μM, protease 2.0 nM, 37° C., 60 minutes, read-out: Percent Inhibition): 96% | Disintegrations/Minute (HIV protease; Compound I .63 μM): 5265 Disintegrations/Minute | inhibition at 0.63 µM (stock) (HIV protease; Compound I .63 μM, protease 2.0 nM, 37° C., 60 minutes, read-out: Percent Inhibition): -18% | inhibition of HIV protease (in words) (HIV protease; concentration of Compound I about 63 μm or greater): very high degree to substantially complete inhibition | solubility in organic solvents [1]: soluble in organic solvents | undesirable cytotoxic and other side effects [2]: substantially free of undesirable cytotoxic and other side effects | activity in an assay for platelet activating factor [3]: some activity | specificity among proteases (proteases): highly specific having no inhibitory effect or showing some activity only against proteases whose locus of action is avoidable
